Test results taken from patent publication US6562854B2, “Compositions comprising a substituted benzimidazole useful for treating immunomediated inflammatory disorders” (Axys Pharmaceuticals, Inc., priority 1994, dated 2003).
Structures can show the parent of a compound that is named as a salt.

Test system: tryptase purified from human lung or skin tissue preparations or human mast cell line (HMC-1)
Test: In vitro Tryptase Inhibition Assay
Format: biochemical
Conditions: substrate tosyl-Gly-Pro-Lys-p-nitroanilide; Tris-HCl pH 8.2; zinc chloride 150 μM; 1 hour preincubation at room temperature; read-out: Ki (apparent inhibition constant, tryptase inhibitory activity)
Procedure: Tryptase solution ([…]) was prepared by dissolving tryptase purified from human lung or skin tissue preparations or human mast cell line (HMC-1) or obtained from commercial sources, e.g., ICN Biomeidals, Irvine, Calif., Athens Research & Technology, Athens, Ga., etc., in a solvent mixture comprising: 10 mM 2-N-morpholinoethane sulfonic acid, 2 mM CaCl2, 20% glycerol and 50 µg/mL heparin. Substrate solution containing 2 mM synthetic tripeptide (tosyl-Gly-Pro-Lys-p-nitroanilide) was obtained from Sigma. Test Compound solutions were prepared by diluting a stock solution (1 mg of test Compound in 200 μL of dimethylsulfoxide (DMSO)) by ten-fold into assay buffer (comprising: Tris-HCl (pH 8.2), 50 mM; NaCl, 100 MM; 0.05% polyoxyethylenesorbitan monolaurate (Tween-20®); and zinc chloride, 150 μM) and then making seven additional three-fold dilutions into 10% DMSO in assay buffer.
Aliquots (50 μL) from each of the eight dilutions of test compound solution were added to separate wells in a 96-well U-bottom microtiter plate. Typtase solution (25 μL) was added to each well and the solutions were mixed 1 hour at room temperature. Substrate solution (25 μL) was added to initiate the enzymatic reaction and the microtiter plates were immediately transferred to a UVIMAX Kinetic Microplate Reader (Molecular Devices). The hydrolysis of the chromogenic substrate was followed spectrophotometrically at 405 nanometers for five minutes. Initial velocity measurements were calculated from the progress curves by kinetic analysis program (BatchKi; Petr Kuzmic, University of Wisconsin, Madison, Wis.). Apparent inhibition constants (K) were calculated from the enzyme progress curves using standard mathematical models.

| Compound | Ki |
| --- | --- |
| CC(=N)N1CCc2[nH]c(Cc3nc4ccc(C(=O)NCCc5c(O)ccc6ccccc56)cc4n3C)nc2C1 [Compound 127, 2-[5-(1-iminoethyl)-4,5,6,7-tetrahydro-1H-imidazo[4,5-c]pyridin-2-ylmethyl]-3-methyl-N-[2-(2-hydroxynaphth-1-yl)ethyl]-3H-benzoimidazole-5-carboxamide] | 6 nM |
| N=C(N)Nc1ccc2[nH]c(C(=O)c3nc4ccc(C(=O)NCCc5cccc6ccccc56)cc4n3CC(O)CO)nc2c1 (centres unmarked) [Compound 134, 2-(5-guanidino-1H-benzoimidazol-2-ylcarbonyl)-3-(2,3-dihydroxy)propyl-N-(2-naphth-1-ylethyl)-3H-benzoimidazole-5-carboxamide] | 0.02 nM |
| NCc1ccc2[nH]c(Cc3nc4cc(NC(=O)OCCc5ccccc5)ccc4[nH]3)nc2c1 [Compound 27, 2-Phenylethyl 2-(5-aminomethyl-1H-benzoimidazol-2-ylmethyl)-1H-benzoimidazole-5-carbamate trifluoroacetate] | 600 nM |
| COc1ccccc1OCCNC(=O)c1ccc2nc(C(C)c3nc4cc(O)ccc4[nH]3)n(C)c2c1 (centres unmarked) [Compound 30, 2-[1-(5-Hydroxy-1H-benzoimidazol-2-yl)ethyl]-N-[2-(2-methoxyphenoxy)ethyl]-3-methyl-3H-benzoimidazole-5-carboxamide] | 9 nM |
| N=C(N)Nc1ccc2[nH]c(Cc3nc4ccc(C(=O)NCCc5cccc6ccccc56)cc4n3CCO)nc2c1 [Compound 152, 2-(5-guanidino-1H-benzoimidazol-2-ylmethyl)-3-(2-hydroxy)ethyl-N-(2-naphth-1-ylethyl)-3H-benzoimidazole-5-carboxamide] | 0.5 nM |
| CC(c1nc2c(F)cc(F)c(F)c2[nH]1)c1nc2ccc(C(=O)NCCOc3ccccc3C(=O)O)cc2n1C (centres unmarked) [Compound 80, 2-(2-{2-[1-(4,6,7-Trifluoro-1H-benzoimidazol-2-yl)ethyl]-3-methyl-3H-benzoimidazol-5-ylcarbonylamino}ethoxy)benzoic acid] | 10 nM |
| CC(c1nc2cc(NC(=N)N)ccc2[nH]1)c1nc2ccc(C(=O)NCCOc3ccc(Cl)cc3C(=O)O)cc2n1C (centres unmarked) [Compound 252, 5-chloro-2-(2-{2-[1-(5-guanidino-1H-benzoimidazol-2-yl)ethyl]-3-methyl-3H-benzoimidazol-5-ylcarbonylamino}ethoxy)benzoic acid] | 0.4 nM |
| NCc1ccc2[nH]c(Cc3nc4cc(C(=O)NCCCCc5ccccc5)ccc4[nH]3)nc2c1 [Compound 1, 2-(5-Aminomethyl-1H-benzoimidazol-2-ylmethyl)-N-(4-phenylbutyl)-1H-benzoimidazole-5-carboxamide trifluoroacetate] | 90 nM |
| CCOC(=O)c1ccccc1OCCNC(=O)c1ccc2nc(C(C)c3nc4c(F)cc(F)c(F)c4[nH]3)n(C)c2c1 (centres unmarked) [Compound 75, ethyl 2-(2-{2-[1-(4,6,7-trifluoro-1H-benzoimidazol-2-yl)ethyl]-3-methyl-3H-benzoimidazol-5-carbonylamino}ethoxy}benzoate] | 30 nM |
| CC(c1nc2cc(NC(=N)N)ccc2[nH]1)c1nc2ccc(C(=O)NCCOc3ccccc3C(N)=O)cc2n1C (centres unmarked) [Compound 249, 2-[1-(5-guanidino-1H-benzoimidazol-2-yl)ethyl]-N-[2-(2-carbamoylphenoxy)ethyl]-3-methyl-3H-benzoimidazole-5-carboxamide] | 0.7 nM |
| CCOC(=O)c1ccccc1CCCC(=O)N1CCc2[nH]c(C(C)c3nc4cc(NC(=N)N)ccc4[nH]3)nc2C1 (centres unmarked) [Compound 29, Ethyl 2-(4-{2-[1-(5-guanidino-1H-benzoimidazol-2-yl)ethyl]-1,4,6,7-tetrahydroimidazo[4,5-c]pyridin-5-yl}-4-oxobutyl)benzoate] | 0.8 nM |
| Cn1c(Cc2nc3cc(CN)ccc3[nH]2)nc2cc(C(=O)NCCCN)ccc21 [Compound 12, 2-(5-Aminomethyl-1H-benzoimidazol-2-ylmethyl)-N-(3-aminopropyl)-1-methyl-1H-benzoimidazole-5-carboxamide] | 29000 nM |
| CCCCOC(=O)c1ccccc1OCCNC(=O)c1ccc2nc(C(C)c3nc4cc(O)ccc4[nH]3)n(C)c2c1 (stereo not drawn) [Compound 37, butyl 2-(2-{2-[l-(5-hydroxy-1H-benzoimidazol-2-yl)ethyl]-3-methyl-3H-benzoimidazol-5-ylcarbonylamino}ethoxy)benzoate] | 2 nM |
| CC(c1nc2cc(F)c(F)cc2[nH]1)c1nc2ccc(C(=O)NCCOc3ccccc3C(=O)O)cc2n1C (centres unmarked) [Compound 81, 2-(2-{2-[1-(5,6-difluoro-1H-benzoimidazol-2-yl)ethyl]-3-methyl-3H-benzoimidazol-5-ylcarbonylamino}ethoxy)benzoic acid] | 10 nM |
| CC(=N)N1CCc2[nH]c(Cc3nc4ccc(C(=O)NCCc5ccc(O)c6ccccc56)cc4n3C)nc2C1 [Compound 128, 2-[5-(1-iminoethyl)-4,5,6,7-tetrahydro-1H-imidazo[4,5-c]pyridin-2-ylmethyl]-3-methyl-N-[2-(4-hydroxynaphthal-1-yl)ethyl]-3H-benzoimidazole-5-carboxamide] | 2 nM |
| N=C(N)Nc1ccc2[nH]c(Cc3nc4ccc(C(=O)NCCc5cccc6ccccc56)cc4n3CCCO)nc2c1 [Compound 138, 2-(5-guanidino-1H-benzoimidazol-2-ylmethyl)-3-(3-hydroxy)propyl-N-(2-naphth-1-ylethyl)-3H-benzoimidazole-5-carboxamide] | 0.2 nM |
| CC(c1nc2cc(NC(=N)N)ccc2[nH]1)c1nc2ccc(C(=O)NCCOc3ccc(Cl)cc3C(N)=O)cc2n1C (centres unmarked) [Compound 250, 2-[1-(5-guanidino-1H-benzoimidazol-2-yl)ethyl]-N-[2-(2-carbamoyl-4-chlorophenoxy)ethyl]-3-methyl-3H-benzoimidazole-5-carboxamide] | 0.4 nM |
| CC(=N)N1CCc2[nH]c(Cc3nc4ccc(C(=O)NCC(O)c5cccc6ccccc56)cc4n3C)nc2C1 (centres unmarked) [Compound 126, 2-[5-(1-iminoethyl)-4,5,6,7-tetrahydro-1H-imidazo[4,5-c]pyridin-2-ylmethyl]-3-methyl-N-(2-hydroxy-2-naphth-1-ylethyl)-3H-benzoimidazole-5-carboxamide] | 8 nM |
| CC(=N)N1CCc2[nH]c(Cc3nc4ccc(C(=O)NCCc5cccc6ccccc56)cc4n3C)nc2C1 [Compound 115, 2-[5-(1-iminoethyl)-4,5,6,7-tetrahydro-1H-imidazo[4,5-c]pyridin-2-ylmethyl]-3-methyl-N-(2-naphth-1-ylethyl)-3H-benzoimidazole-5-carboxamide] | 3 nM |
| Cn1c(Cc2nc3c([nH]2)CCC(CN)C3)nc2ccc(C(=O)NCCc3cccc4ccccc34)cc21 (centres unmarked) [Compound 112, 2-(5-aminomethyl-4,5,6,7-tetrahydro-1H-benzoimidazol-2-ylmethyl)-3-methyl-N-(2-naphth-1-ylethyl)-3H-benzoimidazole-5-carboxamide] | 0.05 nM |
| CC(=N)N1CCc2[nH]c(C(C)c3nc4ccc(C(=O)NCCOc5ccccc5-c5nnn[nH]5)cc4n3C)nc2C1 (centres unmarked) [Compound 225, 2-{1-[5-(1-iminoethyl)-4,5,6,7-tetrahydro-1H-imidazo[4,5-c]pyridin-2-yl]ethyl}-3-methyl-N-[2-(2-tetrazolylphenoxy)ethyl]-3H-benzoimidazole-5-carboxamide] | 8 nM |
| CCOC(=O)c1ccccc1OCCNC(=O)c1ccc2nc(C(C)c3nc4cc(OC(=O)OC)ccc4n3C(=O)C(C)C)n(C)c2c1 (centres unmarked) [Compound 84, Ethyl 2-(2-{2-[1-(1-isobutyryl-5-methoxycarbonyloxy-1H-benzoimidazol-2-yl)ethyl]-3-methyl-3H-benzoimidazol-5-ylcarbonylamino}ethoxy)benzoate] | 2600 nM |
| CCCOC(=O)c1ccccc1OCCNC(=O)c1ccc2nc(C(C)c3nc4cc(O)ccc4[nH]3)n(C)c2c1 (centres unmarked) [Compound 42, propyl 2-(2-{2-[1-(5-hydroxy-1H-benzoimidazol-2-yl)ethyl]-3-methyl-3H-benzoimidazol-5-ylcarbonylamino}ethoxy)benzoate] | 8 nM |
| Cn1c(Cc2nc3cc(CN)ccc3[nH]2)nc2ccc(C(=O)NCCc3cccc4ccccc34)cc21 [Compound 102, 2-(5-aminomethyl-1H-benzoimidazol-2-ylmethyl)-3-methyl-N-(2-naphth-1-ylethyl)-3H-benzoimidazole-5-carboxamide] | 0.07 nM |
| CCOC(=O)c1ccccc1OCCNC(=O)c1ccc2nc(C(C)c3nc4c([nH]3)CCN(C(C)=N)C4)n(C)c2c1 (centres unmarked) [Compound 182, ethyl 2-[2-(2-{1-[5-(1-iminoethyl)-4,5,6,7-tetrahydro-1H-imidazo[4,5-c]pyridin-2-yl]ethyl}-3-methyl-3H-benzoimidazol-5-ylcarbonylamino)ethoxy]benzoate] | 4 nM |
| CC(c1nc2cc(NC(=N)N)ccc2[nH]1)c1nc2ccc(C(=O)NCCOc3cc(Cl)ccc3C(=O)O)cc2n1C (centres unmarked) [Compound 251, 4-chloro-2-(2-{2-[1-(5-guanidino-1H-benzoimidazol-2-yl)ethyl]-3-methyl-3H-benzoimidazol-5-ylcarbonylamino}ethoxy)benzoic acid] | 0.8 nM |
